Assay results from EP4603105A1, “PHARMACEUTICAL COMPOSITION CONTAINING CYCLIC COMPOUND HAVING SELECTIVE KRAS INHIBITORY EFFECT AGAINST HRAS AND NRAS” (CHUGAI SEIYAKU KABUSHIKI KAISHA, priority 2022, dated 2024).
Where two headings read alike, the source gives them in different places. *1 amine or outer side, *2 acyl side, *3 side chain or, on linkers, in order; H or OH if unused. Where a SMILES comes first, the peptide text is derived from it. Bridges are numbered along the chain shown (N, C = ends). [ ]: non-standard residue; d: D form. The star is where a group is joined. hPhe(3,5-F2-4-CF3) = N[C@@H](CCc1cc(F)c(C(F)(F)F)c(F)c1)C(=O)O; X25 = O=C([C@H](Cc1ccc(C(F)(F)F)cc1)N(CCC(F)(F)F)[*:1])[*:2]; hPhe(3-Cl-4-CF3) = N[C@@H](CCc1ccc(C(F)(F)F)c(Cl)c1)C(=O)O; NPrPhe(4-CF3) = CCCN[C@@H](Cc1ccc(C(F)(F)F)cc1)C(=O)O; X15 = CCCN([C@@H](Cc1ccccc1)C(=O)[*:2])[*:1]; NMeGly(cPent) = CN[C@H](C(=O)O)C1CCCC1; Pro(4,4-F2) = O=C(O)[C@@H]1CC(F)(F)CN1; NMeD = CN[C@@H](CC(=O)O)C(=O)O; NMeL = CN[C@@H](CC(C)C)C(=O)O; αMeV = CC(C)[C@](C)(N)C(=O)O; Iva = CC[C@](C)(N)C(=O)O; Morpholide = C1CN(*)CCO1; NMeA = CN[C@@H](C)C(=O)O; Ac5c = NC1(C(=O)O)CCCC1; Aze = O=C(O)[C@@H]1CCN1; NEtG = CCNCC(=O)O; Sar = CNCC(=O)O

Tests used:
[1] = target: GDP-bound NRAS wild-type protein (Homo sapiens, UniProt P01111); assay: Binding to NRAS by surface plasmon resonance (SPR), KD and KD ratio to KRAS
Chain of GDP-bound NRAS wild-type protein (P01111 whole entry): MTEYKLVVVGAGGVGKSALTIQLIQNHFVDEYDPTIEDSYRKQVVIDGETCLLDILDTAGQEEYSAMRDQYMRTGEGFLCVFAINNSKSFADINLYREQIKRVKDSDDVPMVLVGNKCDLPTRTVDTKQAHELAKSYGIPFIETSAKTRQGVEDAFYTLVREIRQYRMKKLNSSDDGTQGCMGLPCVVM
How it was run: (§1)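 Running buffer contained 10 µM GDP and 10 mM MgCl2 to keep RAS in the GDP state, with 4% DMSO at pH 7.4. Compounds were flowed at 100 µL/min in 75 s steps of rising concentration over captured biotin-Avi RAS at 30°C. Sensorgrams were fitted 1:1 for KD.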

[2] = tested on: human lung cancer strain NCI-H441; format: cell-based
How it was run: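 Step one: dispense the test compound in serial DMSO dilutions. Step three: add the reagent and measure […].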

HRAS wild-type protein = HRAS wild-type protein (Homo sapiens, UniProt P01112); assay: Binding to HRAS by surface plasmon resonance (SPR), KD and KD ratio to KRAS
Chain of HRAS wild-type protein (P01112 whole entry): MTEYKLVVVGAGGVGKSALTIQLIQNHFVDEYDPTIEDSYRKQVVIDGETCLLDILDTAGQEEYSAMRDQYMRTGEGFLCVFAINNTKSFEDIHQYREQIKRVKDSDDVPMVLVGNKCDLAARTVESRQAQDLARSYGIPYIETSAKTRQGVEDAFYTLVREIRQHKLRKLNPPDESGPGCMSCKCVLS
How it was run: as §1

[3] = ratio of KD for GDP-bound NRAS wild-type protein to KD for KRAS
[4] = ratio of KD for HRAS wild-type protein to KD for KRAS
[5] = ratio of the KD value with respect to GDP-bound NRAS wild-type protein to the KD value with respect to KRAS
[6] = ratio of the KD value with respect to HRAS wild-type protein to the KD value with respect to KRAS

Compound	NRAS /KRAS [1, 3]	IC50 ([2]; NCI-H441 cells, 4 days, CellTiter-Glo, read-out: NCl-H441 IC50)	HRAS /KRAS (HRAS wild-type protein; [4])	IC50 [2]	NRAS /KRAS [1, 5]	HRAS /KRAS (HRAS wild-type protein; [6])	NRAS /KRAS ([1]; ratio of KD value for GDP-bound NRAS wild-type protein to KD value for KRAS (SPR))	HRAS /KRAS (HRAS wild-type protein; ratio of KD value for HRAS wild-type protein to KD value for KRAS (SPR))
CCC[C@H]1C(=O)N[C@@H]([C@@H](C)CC)C(=O)N(C)CC(=O)N(C)[C@H]2C/C=C\CCN(C2=O)[C@@H](Cc2ccc(C(F)(F)F)cc2)C(=O)N(C)CC(=O)N[C@@H](CCc2ccc(C3CC3)c(Cl)c2)C(=O)N2C[C@H](OCC)C[C@H]2C(=O)NC2(CC(C)(C)C2)C(=O)N(C)[C@@H](C2CCCC2)C(=O)N(C)[C@H](C(=O)N(C)C)CC(=O)N1C [PP2858]	A (a compound having 10 or more and less than 20 is denoted as A)	11.8 nM	B (a compound having 3 or more and less than 10 is denoted as B)	–	–	–	–	–
CC[C@H](C)[C@@H]1NC(=O)[C@H](CC(C)C)N(C)C(=O)C[C@@H](C(=O)N2CCOCC2)N(C)C(=O)[C@H](C2CCCC2)N(C)C(=O)C2(CCCC2)NC(=O)[C@@H]2CCCN2C(=O)[C@H](CCc2ccc(C(F)(F)F)c(Cl)c2)NC(=O)CN(C)C(=O)[C@H](Cc2ccc(C(F)(F)F)cc2)N(CCC(F)(F)F)C(=O)[C@@H]2CCN2C(=O)[C@H](C)N(C)C1=O [PP0117] ([NMeL]I[NMeA][Aze][X25][Sar][hPhe(3-Cl-4-CF3)]P[Ac5c][NMeGly(cPent)][NMeD]-Morpholide; lactam N-11)	B (a compound having 3 or more and less than 10 is denoted as B)	–	B (a compound having 3 or more and less than 10 is denoted as B)	9.2 nM	–	–	–	–
CCO[C@@H]1C[C@H]2C(=O)NC3(CCC3)C(=O)N(C)[C@@H](C3CCCC3)C(=O)N(C)[C@H](C(=O)N(C)C)CC(=O)N(C)[C@@H](CC3CCCCC3)C(=O)N[C@@H]([C@@H](C)CC)C(=O)N(C)CC(=O)N(C)[C@H]3C/C=C\CCN(C3=O)[C@@H](Cc3ccc(C(F)(F)F)cc3)C(=O)N(C)CC(=O)N[C@@H](CCc3cc(F)c(C(F)(F)F)c(F)c3)C(=O)N2C1 [PP1125]	A (a compound having 10 or more and less than 20 is denoted as A)	–	A (a compound having 10 or more and less than 20 is denoted as A)	15 nM	–	–	–	–
CCO[C@@H]1C[C@H]2C(=O)NC3(CC(C)(C)C3)C(=O)N(C)[C@@H](C3CCCC3)C(=O)N(C)[C@H](C(=O)N(C)CC)CC(=O)N(C)[C@H]3CCCC/C=C/c4ccc(cc4)C[C@@H](C(=O)N(C)CC(=O)N[C@@H](CCc4ccc(Cl)c(Cl)c4)C(=O)N2C1)N1CC/C=C\C[C@@H](C1=O)N(C)C(=O)CN(C)C(=O)[C@H]([C@@H](C)CC)NC3=O [PP2592]	A (a compound having 10 or more and less than 20 is denoted as A)	–	A (a compound having 10 or more and less than 20 is denoted as A)	7.9 nM	–	–	–	–
CCC[C@H]1C(=O)N[C@@H]([C@@H](C)CC)C(=O)N(C2CC2)CC(=O)N(C)[C@H]2C/C=C\CCN(C2=O)[C@@H](Cc2ccc(C)cc2)C(=O)N(C)CC(=O)N[C@@H](CCc2ccc(C(F)(F)F)c(OC)c2)C(=O)N2C[C@H](OCC)C[C@H]2C(=O)N(C)C2(CCC2)C(=O)N(C)[C@@H](C2CCCC2)C(=O)N(C)[C@H](C(=O)N(C)C)CC(=O)N1C [PP2328]	–	–	–	2.2 nM	A (a compound having 10 or more and less than 20 is denoted as A)	A (a compound having 10 or more and less than 20 is denoted as A)	–	–
CCCN1C(=O)[C@@H]2CCN2C(=O)CN(C)C(=O)[C@H]([C@@H](C)CC)NC(=O)[C@H](CC(C)C)N(C)C(=O)C[C@@H](C(=O)N2CCOCC2)N(C)C(=O)[C@H](C2CCCC2)N(C)C(=O)[C@](C)(C(C)C)NC(=O)[C@@H]2CCCN2C(=O)[C@H](CCc2cc(F)c(C(F)(F)F)c(F)c2)NC(=O)CN(C)C(=O)[C@@H]1Cc1ccc(C(F)(F)F)cc1 [PP0792] ([NMeL]I[Sar][Aze][NPrPhe(4-CF3)][Sar][hPhe(3,5-F2-4-CF3)]P[αMeV][NMeGly(cPent)][NMeD]-Morpholide; lactam N-11)	C (A compound having a KD ratio of 0.1 or more and less than 3 is denoted as C)	–	B (a compound having 3 or more and less than 10 is denoted as B)	112 nM	–	–	–	–
CC[C@H](C)[C@@H]1NC(=O)[C@H](C(C)C)N(C)C(=O)C[C@@H](C(=O)N(C)CC)N(C)C(=O)[C@H](C2CCCC2)N(C)C(=O)C2(CC(C)(C)C2)NC(=O)[C@@H]2C[C@H](C)CN2C(=O)[C@H](CCc2cc(F)c(C(F)(F)F)c(F)c2)NC(=O)CN(C)C(=O)[C@H](Cc2ccc(C(F)(F)F)cc2)N2CC/C=C\C[C@@H](C2=O)N(C)C(=O)CN(C)C1=O [PP1976]	–	–	–	92 nM	AA (a compound having 20 or more is denoted as AA)	A (a compound having 10 or more and less than 20 is denoted as A)	–	–
CCCN1C(=O)CN(C)C(=O)CNC(=O)[C@H]([C@@H](C)CC)NC(=O)[C@H](CC(C)C)N(C)C(=O)C[C@@H](C(=O)N2CCOCC2)N(C)C(=O)[C@H](C2CCCC2)N(C)C(=O)C2(CCCC2)NC(=O)[C@@H]2CCCN2C(=O)[C@H](CCc2ccc(C(F)(F)F)c(Cl)c2)NC(=O)CN(CC)C(=O)[C@@H]1Cc1ccc(C(F)(F)F)cc1 [PP1969] ([NMeL]IG[Sar][NPrPhe(4-CF3)][NEtG][hPhe(3-Cl-4-CF3)]P[Ac5c][NMeGly(cPent)][NMeD]-Morpholide; lactam N-11)	–	–	–	74 nM	B (a compound having 3 or more and less than 10 is denoted as B)	C (A compound having a KD ratio of 0.1 or more and less than 3 is denoted as C)	–	–
CCCN1C(=O)CN(C)C(=O)CN(C)C(=O)[C@H]([C@@H](C)CC)NC(=O)[C@H](CC(C)C)N(C)C(=O)C[C@@H](C(=O)N(C)C)N(C)C(=O)[C@H](C2CCCC2)N(C)C(=O)[C@](C)(CC)NC(=O)[C@@H]2CCCN2C(=O)[C@H](CCc2cc(F)c(C(F)(F)F)c(F)c2)NC(=O)CN(C)C(=O)[C@@H]1Cc1ccc(C(F)(F)F)cc1 [PP0805] ([NMeL]I[Sar][Sar][NPrPhe(4-CF3)][Sar][hPhe(3,5-F2-4-CF3)]P[Iva][NMeGly(cPent)][NMeD]-NMe2; lactam N-11)	B (a compound having 3 or more and less than 10 is denoted as B)	–	C (A compound having a KD ratio of 0.1 or more and less than 3 is denoted as C)	10.3 nM	–	–	–	–
CCO[C@@H]1C[C@H]2C(=O)NC3(CCC3)C(=O)N(C)[C@@H](C3CCCC3)C(=O)N(C)[C@H](C(=O)N(C)C)CC(=O)N(C)[C@@H](CC3CCCCC3)C(=O)N[C@@H]([C@@H](C)CC)C(=O)N(C)CC(=O)N(C)[C@H]3CCCCN(C3=O)[C@@H](Cc3ccc(C(F)(F)F)cc3)C(=O)N(C)CC(=O)N[C@@H](CCc3cc(F)c(C(F)(F)F)c(F)c3)C(=O)N2C1 [PP0701]	–	–	–	3.8 nM	C (A compound having a KD ratio of 0.1 or more and less than 3 is denoted as C)	B (a compound having 3 or more and less than 10 is denoted as B)	–	–
CCCN1C(=O)[C@@H]2CCN2C(=O)[C@H](C)N(C)C(=O)[C@H]([C@@H](C)CC)NC(=O)[C@H](CC(C)C)N(C)C(=O)C[C@@H](C(=O)N2CCOCC2)N(C)C(=O)[C@H](C2CCCC2)N(C)C(=O)C2(CCCC2)NC(=O)[C@@H]2CCCN2C(=O)[C@H](CCc2ccc(C(F)(F)F)c(Cl)c2)NC(=O)CN(C)C(=O)[C@@H]1Cc1ccccc1 [PP0216] ([NMeL]I[NMeA][Aze][X15][Sar][hPhe(3-Cl-4-CF3)]P[Ac5c][NMeGly(cPent)][NMeD]-Morpholide; lactam N-11)	C (A compound having a KD ratio of 0.1 or more and less than 3 is denoted as C)	–	B (a compound having 3 or more and less than 10 is denoted as B)	3 nM	–	–	–	–
CCCN1C(=O)[C@@H]2CCN2C(=O)CN(C)C(=O)[C@H]([C@@H](C)CC)NC(=O)[C@H](CC(C)C)N(C)C(=O)C[C@@H](C(=O)N2CCOCC2)N(C)C(=O)[C@H](C2CCCC2)N(C)C(=O)C2(CCCC2)NC(=O)[C@@H]2CC(F)(F)CN2C(=O)[C@H](CCc2ccc(C(F)(F)F)c(Cl)c2)NC(=O)CN(C)C(=O)[C@@H]1Cc1ccc(C(F)(F)F)cc1 [PP0408] ([NMeL]I[Sar][Aze][NPrPhe(4-CF3)][Sar][hPhe(3-Cl-4-CF3)][Pro(4,4-F2)][Ac5c][NMeGly(cPent)][NMeD]-Morpholide; lactam N-11)	–	–	–	5.7 nM	C (A compound having a KD ratio of 0.1 or more and less than 3 is denoted as C)	B (a compound having 3 or more and less than 10 is denoted as B)	–	–
CCO[C@@H]1C[C@H]2C(=O)NC3(CCC3)C(=O)N(C)[C@@H](C(CC)CC)C(=O)N(C)[C@H](C(=O)N(C)C)CC(=O)N(C)[C@@H](CC(C)C)C(=O)N[C@@H]([C@@H](C)CC)C(=O)N(C)CC(=O)N(C)[C@H]3C/C=C\CCN(C3=O)[C@@H](Cc3ccc(F)cc3)C(=O)N(C)CC(=O)N[C@@H](CCc3cc(F)c(C(F)(F)F)c(F)c3)C(=O)N2C1 [PP1519]	–	–	–	78.2 nM	–	–	A (a compound having 10 or more and less than 20 is denoted as A)	A (a compound having 10 or more and less than 20 is denoted as A)
CCC(CC)[C@H]1C(=O)N(C)[C@H](C(=O)N(C)C)CC(=O)N(C)[C@@H](COC)C(=O)N[C@@H]([C@@H](C)CC)C(=O)N(C)CC(=O)N(C)[C@H]2C/C=C\CCN(C2=O)[C@@H](Cc2ccc(C(F)(F)F)cc2)C(=O)N(C)CC(=O)N[C@@H](CCc2cc(F)c(C(F)(F)F)c(F)c2)C(=O)N2CCCC[C@H]2C(=O)NC2(CC(C)(C)C2)C(=O)N1C [PP2916]	A (a compound having 10 or more and less than 20 is denoted as A)	–	A (a compound having 10 or more and less than 20 is denoted as A)	106 nM	–	–	–	–
